In patent publication US12391683B2, “Therapeutic compounds and methods” (Actio Biosciences, Inc., priority 2022, dated 2025):
Values joined by “and” are separate entries in the source; they are usually repeats but may differ in a detail not shown here. Equal values may be shown once.

Columns and labels:
[1] = biological target: recombinant human CYP3A4 enzyme (Homo sapiens, UniProt P08684); experiment: CYP3A4 incubation assay; assay type: in vitro ADME
Experimental: Example 24. CYP3A4 Incubation Assay
Compounds (final concentration […]) were incubated in 100 mM phosphate buffer containing 100 pmol/mL recombinant human CYP3A4 enzyme for 0, 5, 10, 15 and 25 minutes.
Testosterone was used as positive control. Reaction was initiated by the addition of NADPH (final concentration […]) and carried out at 37° C. The reaction was stopped by the addition of 4 volumes of cold acetonitrile (with 100 nM alprazolam, 200 nM labetalol, 200 nM imipramine and 2 μM ketoprofen as internal standards). Samples were centrifuged at 3,220 g for 40 minutes to precipitate protein. 70 μL supernatant was transferred to the analysis plate containing 110 μL of acetonitrile for LC-MS/MS analysis.
The following table indicates the percentage remaining for the indicated examples after incubation with recombinant Human CYP3A4 after 25 minutes under the same conditions as described for Example […].

Human TRPV4 = Human TRPV4 (Homo sapiens, UniProt Q9HBA0); experiment: TRP Family FLIPR Assay, TRPV4; assay type: cell-based; parameters: expressed in transfected cells; host or cells: CHO; settings: CHO cells
Experimental: (§1) The compound of Example 5 was tested for selectivity against a panel of Human TRP family ion channels in a TRP Family FLIPR Assay as described below. • 1. TRPC3 channels (human TRPC3 variant 1 gene, expressed in HEK293 cells). • 2. TRPC4 channels (human TRPC4 gene, expressed in HEK293 cells). • 3. TRPC5 channels (human TRPC5 gene, expressed in HEK293 cells). • 4. TRPC6 channels (human TRPC6 gene, expressed in HEK293 cells). • 5. TRPM2 channels (human TRPM2 gene, transiently expressed in HEK293 cells). • 6. TRPM3 channels (human TRPM3 gene, transiently expressed in HEK293 cells). • 7. TRPM4 channels (human TRPM4 gene, expressed in CHO cells). • 8. […]
(§2) Data acquisition was performed via the FLIPR Control software supplied with the FLIPR System (MDS-AT) and data was analyzed using Microsoft Excel (Microsoft Corp., Redmond, WA) or GraphPad Prism. […]
(§3) [formula] where Base is the response at low concentrations of test article, Max is the maximum response at high concentrations, xhalf the EC50, or IC50, the concentration of test article producing either half-maximal activation or inhibition, and rate is the Hill coefficient. […] No assumptions about the fit parameters was made; the fit parameters were determined by the algorithm.
(§4) The effect of each test article was evaluated at eight (8) concentrations: 0.003, 0.01, 0.03, 0.1, 0.3, 1, 3 and 10 μM, n≤4 wells/concentration). […]

TRPV2 channels = biological target: T1, TRPV2 channels (Homo sapiens, UniProt Q9Y5S1); experiment: TRP Family FLIPR Assay, TRPV2; assay type: cell-based; settings: HEK293 cells (transient)
T1 construct: expressed in transfected cells; host or cells: HEK293 (transient)
T1 sequence (Q9Y5S1 1-764): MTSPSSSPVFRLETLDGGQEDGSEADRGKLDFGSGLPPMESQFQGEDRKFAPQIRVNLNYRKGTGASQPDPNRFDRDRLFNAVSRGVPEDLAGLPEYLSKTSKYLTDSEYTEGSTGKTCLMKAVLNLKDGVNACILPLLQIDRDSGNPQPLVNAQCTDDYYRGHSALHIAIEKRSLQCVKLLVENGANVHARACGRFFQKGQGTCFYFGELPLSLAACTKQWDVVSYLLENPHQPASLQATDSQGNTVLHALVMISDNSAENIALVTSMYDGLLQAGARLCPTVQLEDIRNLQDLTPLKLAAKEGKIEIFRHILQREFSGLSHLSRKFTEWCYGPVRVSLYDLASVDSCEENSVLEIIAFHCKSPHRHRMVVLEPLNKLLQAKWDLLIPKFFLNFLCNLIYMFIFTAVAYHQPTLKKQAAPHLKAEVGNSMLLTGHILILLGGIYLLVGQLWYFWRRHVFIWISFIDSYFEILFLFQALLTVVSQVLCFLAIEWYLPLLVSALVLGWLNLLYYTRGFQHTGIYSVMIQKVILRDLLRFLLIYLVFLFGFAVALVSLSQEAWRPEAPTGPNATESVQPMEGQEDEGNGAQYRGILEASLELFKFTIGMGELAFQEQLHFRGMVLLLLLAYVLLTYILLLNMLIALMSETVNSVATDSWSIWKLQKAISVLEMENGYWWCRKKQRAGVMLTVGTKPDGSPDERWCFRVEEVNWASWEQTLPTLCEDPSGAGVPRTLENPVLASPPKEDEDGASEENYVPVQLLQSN
Experimental: as §1, §2, §3, §4

Chain of recombinant human CYP3A4 enzyme (P08684 whole entry): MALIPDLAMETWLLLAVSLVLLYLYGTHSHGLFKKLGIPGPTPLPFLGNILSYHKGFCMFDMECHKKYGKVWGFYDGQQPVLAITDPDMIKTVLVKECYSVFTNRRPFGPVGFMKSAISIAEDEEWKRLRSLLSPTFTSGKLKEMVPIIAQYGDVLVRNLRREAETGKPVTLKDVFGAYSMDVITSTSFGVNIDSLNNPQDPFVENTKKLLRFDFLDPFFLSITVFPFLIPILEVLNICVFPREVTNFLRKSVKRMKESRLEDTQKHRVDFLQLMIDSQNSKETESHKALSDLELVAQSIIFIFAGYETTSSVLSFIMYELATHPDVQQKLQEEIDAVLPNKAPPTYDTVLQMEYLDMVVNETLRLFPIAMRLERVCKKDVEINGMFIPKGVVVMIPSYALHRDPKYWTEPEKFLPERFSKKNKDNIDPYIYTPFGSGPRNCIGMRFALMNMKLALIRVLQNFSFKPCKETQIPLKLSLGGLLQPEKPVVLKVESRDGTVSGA
Chain of Human TRPV4 (Q9HBA0 whole entry): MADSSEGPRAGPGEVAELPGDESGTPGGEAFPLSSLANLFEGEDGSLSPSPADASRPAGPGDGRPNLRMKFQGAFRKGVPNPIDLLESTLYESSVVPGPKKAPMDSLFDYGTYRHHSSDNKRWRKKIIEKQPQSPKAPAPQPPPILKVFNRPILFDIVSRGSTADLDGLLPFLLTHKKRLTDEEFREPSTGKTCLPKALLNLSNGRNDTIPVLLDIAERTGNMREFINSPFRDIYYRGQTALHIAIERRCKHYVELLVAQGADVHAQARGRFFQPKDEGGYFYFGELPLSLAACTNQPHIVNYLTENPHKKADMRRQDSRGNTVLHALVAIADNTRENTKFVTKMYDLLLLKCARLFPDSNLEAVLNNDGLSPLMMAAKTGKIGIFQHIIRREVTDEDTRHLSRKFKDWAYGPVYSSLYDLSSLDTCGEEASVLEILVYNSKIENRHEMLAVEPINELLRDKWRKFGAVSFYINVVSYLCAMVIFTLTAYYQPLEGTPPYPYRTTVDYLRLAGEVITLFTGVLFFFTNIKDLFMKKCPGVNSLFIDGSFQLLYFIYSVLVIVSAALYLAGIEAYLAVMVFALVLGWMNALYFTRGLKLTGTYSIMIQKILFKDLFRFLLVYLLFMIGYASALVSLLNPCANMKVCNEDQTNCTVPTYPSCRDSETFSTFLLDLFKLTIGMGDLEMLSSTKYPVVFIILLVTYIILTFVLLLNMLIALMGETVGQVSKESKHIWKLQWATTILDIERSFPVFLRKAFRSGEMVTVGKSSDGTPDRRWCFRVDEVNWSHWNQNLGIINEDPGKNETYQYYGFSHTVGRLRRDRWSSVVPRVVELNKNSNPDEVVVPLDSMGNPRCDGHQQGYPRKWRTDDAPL

CC(C)(O)c1cnc(N2C[C@@]3(CC[C@@H](F)[C@](C)(Cn4cnc5ccc(C#N)cc54)C3)OC2=O)cn1 (single isomer, unassigned) [Example 5]
CYP3A4 Clint ([1]; 100 pmol/mL recombinant human CYP3A4, 37° C., 0-25 min): 0.09 μL/min/pmol CYP450 and < 0.07 μL/min/pmol CYP450 | Metabolic Stability in Recombinant Human CYP3A4 + NADPH (% remaining after 25 min) ([1]; recombinant Human CYP3A4 + NADPH, 25 min): 100% | EC50 (Human TRPV4; agonist mode, vs EMAX of GSK1016790A 3 μM, read-out: EC50 hTRPV4): > 10 µM | IC50 (Human TRPV4; antagonist mode, activated with GSK1016790A 0.3 μM, 0.003-10 μM, read-out: IC50 hTRPV4): 0.014 µM | EC50 (TRPV2 channels; agonist mode, vs EMAX of cannabidiol 300 μM, read-out: EC50 hTRPV2): > 10 µM | IC50 (TRPV2 channels; antagonist mode, activated with capsaicin 100 μM, 0.003-10 μM, read-out: IC50 hTRPV2): > 10 µM
